One assay has as its target T1, 5-HT4 (Homo sapiens, UniProt Q13639).
T1 construct: expressed in transfected cells
The assay is described as follows: Radioligand binding assay, 5-HT4 subtype. The method, then:
(§1) [^3H] […] The reactions are incubated at room temperature for 3 hr. and then counted in a Trilux Microbeta™ scintillation counter to detect receptor-bound radioligand. Binding data is analyzed by computer-assisted 4 parameter fit analysis (ID Business Solutions Ltd, Guildford, Surrey, UK). […]
(§2) Affinity for other serotonin receptor subtypes as well as for alpha 1 & 2 adrenergic receptors can readily be determined by modification of the above described radioligand receptor binding assay using membranes derived from cells stably expressing the desired receptor subtype including the 5-HT1A, 5-HT1B, and 5-HT1D subtypes, as well as the 5-HT2A, 5-HT2B, 5-HT2C, 5-HT4, 5-HT5, and 5-HT6 receptor subtypes. […]

Another assay deals with alpha 2 adrenergic. Kind of assay: Radioligand binding assay, alpha 2 adrenergic. The method, then:
as §1, §2

Another assay deals with T2, 5-HT2B (Homo sapiens, UniProt P41595).
T2 construct: expressed in transfected cells
The assay is described as follows: Radioligand binding assay, 5-HT2B subtype. The method, then:
as §1, §2

The target in the next assay is T3, 5-HT2C (Homo sapiens, UniProt P28335).
T3 construct: expressed in transfected cells
T3 sequence (P28335 33-458): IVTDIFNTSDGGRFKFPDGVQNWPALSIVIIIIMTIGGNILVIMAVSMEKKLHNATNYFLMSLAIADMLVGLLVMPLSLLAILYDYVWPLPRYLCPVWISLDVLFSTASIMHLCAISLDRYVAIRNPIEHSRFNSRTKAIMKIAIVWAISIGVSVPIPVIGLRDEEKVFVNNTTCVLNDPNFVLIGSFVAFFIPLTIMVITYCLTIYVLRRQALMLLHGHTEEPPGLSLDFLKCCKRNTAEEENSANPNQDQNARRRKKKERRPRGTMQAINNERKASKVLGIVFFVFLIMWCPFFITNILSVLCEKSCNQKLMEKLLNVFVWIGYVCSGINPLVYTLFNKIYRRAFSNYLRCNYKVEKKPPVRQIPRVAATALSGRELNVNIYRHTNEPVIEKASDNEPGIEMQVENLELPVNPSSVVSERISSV
Kind of assay: Radioligand binding assay, 5-HT2C subtype. The method, then:
as §1, §2

A further assay addresses T4, 5-HT1D (Homo sapiens, UniProt P28221).
T4 construct: expressed in transfected cells
The assay is described as follows: Radioligand binding assay, 5-HT1D subtype. The method, then: as §1, §2

A further assay addresses T5, 5-HT1A (Homo sapiens, UniProt P08908).
T5 construct: expressed in transfected cells
T5 sequence (P08908 1-422): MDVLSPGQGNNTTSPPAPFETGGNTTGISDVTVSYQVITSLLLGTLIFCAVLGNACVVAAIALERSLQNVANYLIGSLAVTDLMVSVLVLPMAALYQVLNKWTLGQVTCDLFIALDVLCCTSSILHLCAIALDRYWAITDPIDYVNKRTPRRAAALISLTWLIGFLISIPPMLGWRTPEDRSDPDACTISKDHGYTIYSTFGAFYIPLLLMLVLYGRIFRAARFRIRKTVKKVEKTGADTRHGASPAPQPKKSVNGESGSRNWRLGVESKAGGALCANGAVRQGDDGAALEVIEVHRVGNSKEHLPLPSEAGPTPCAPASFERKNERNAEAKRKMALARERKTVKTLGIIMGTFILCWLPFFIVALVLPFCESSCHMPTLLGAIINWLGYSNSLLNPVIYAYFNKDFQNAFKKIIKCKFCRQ
The assay is described as follows: Radioligand binding assay, 5-HT1A subtype. The method, then:
as §1, §2

A further assay addresses alpha 1 adrenergic. Kind of assay: Radioligand binding assay, alpha 1 adrenergic. The method, then:
as §1, §2

The next assay has as its target T6, 5-HT6 (Homo sapiens, UniProt P50406).
T6 construct: expressed in transfected cells
The assay is described as follows: Radioligand binding assay, 5-HT6 subtype. The method, then:
as §1, §2

For another assay, the target named is T7, 5-HT2A (Homo sapiens, UniProt P28223).
T7 construct: expressed in transfected cells
Kind of assay: Radioligand binding assay, 5-HT2A subtype. The method, then:
as §1, §2

A further assay addresses T8, 5-HT5 (Homo sapiens, UniProt P47898).
T8 construct: expressed in transfected cells
The assay is described as follows: Radioligand binding assay, 5-HT5 subtype. The method, then: as §1, §2

Some results are limits rather than exact numbers.

T6 sequence (P50406 whole entry, species assumed): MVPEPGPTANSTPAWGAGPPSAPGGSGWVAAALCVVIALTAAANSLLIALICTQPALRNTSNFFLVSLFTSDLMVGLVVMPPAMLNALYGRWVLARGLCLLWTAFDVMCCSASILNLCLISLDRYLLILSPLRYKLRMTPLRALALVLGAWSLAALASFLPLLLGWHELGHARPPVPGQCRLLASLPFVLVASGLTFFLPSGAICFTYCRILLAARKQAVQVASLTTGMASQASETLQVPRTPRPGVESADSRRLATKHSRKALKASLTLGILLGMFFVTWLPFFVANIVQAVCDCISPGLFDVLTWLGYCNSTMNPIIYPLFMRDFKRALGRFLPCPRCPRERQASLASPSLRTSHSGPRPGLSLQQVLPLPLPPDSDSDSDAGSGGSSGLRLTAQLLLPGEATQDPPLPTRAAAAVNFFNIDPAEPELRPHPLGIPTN
T4 sequence (P28221 whole entry, species assumed): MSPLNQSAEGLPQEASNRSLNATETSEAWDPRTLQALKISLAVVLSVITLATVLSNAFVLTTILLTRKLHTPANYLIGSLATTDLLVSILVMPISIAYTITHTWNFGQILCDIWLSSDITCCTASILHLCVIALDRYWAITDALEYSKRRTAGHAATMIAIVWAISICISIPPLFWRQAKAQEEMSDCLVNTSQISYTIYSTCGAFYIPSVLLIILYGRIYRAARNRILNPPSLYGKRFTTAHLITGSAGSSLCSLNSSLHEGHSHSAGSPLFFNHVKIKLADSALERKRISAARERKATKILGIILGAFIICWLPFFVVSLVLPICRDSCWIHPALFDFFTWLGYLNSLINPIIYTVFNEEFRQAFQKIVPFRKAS
T1 sequence (Q13639 whole entry, species assumed): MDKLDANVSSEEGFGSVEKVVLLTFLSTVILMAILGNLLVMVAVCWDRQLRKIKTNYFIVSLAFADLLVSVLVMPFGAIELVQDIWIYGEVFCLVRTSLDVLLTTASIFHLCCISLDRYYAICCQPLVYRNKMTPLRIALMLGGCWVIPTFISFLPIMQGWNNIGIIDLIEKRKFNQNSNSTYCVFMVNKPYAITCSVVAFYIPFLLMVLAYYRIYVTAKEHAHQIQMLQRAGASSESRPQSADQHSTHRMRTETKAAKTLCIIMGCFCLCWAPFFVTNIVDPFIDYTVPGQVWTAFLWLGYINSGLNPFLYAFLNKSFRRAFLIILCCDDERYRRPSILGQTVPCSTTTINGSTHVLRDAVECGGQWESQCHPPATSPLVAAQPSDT
T8 sequence (P47898 whole entry, species assumed): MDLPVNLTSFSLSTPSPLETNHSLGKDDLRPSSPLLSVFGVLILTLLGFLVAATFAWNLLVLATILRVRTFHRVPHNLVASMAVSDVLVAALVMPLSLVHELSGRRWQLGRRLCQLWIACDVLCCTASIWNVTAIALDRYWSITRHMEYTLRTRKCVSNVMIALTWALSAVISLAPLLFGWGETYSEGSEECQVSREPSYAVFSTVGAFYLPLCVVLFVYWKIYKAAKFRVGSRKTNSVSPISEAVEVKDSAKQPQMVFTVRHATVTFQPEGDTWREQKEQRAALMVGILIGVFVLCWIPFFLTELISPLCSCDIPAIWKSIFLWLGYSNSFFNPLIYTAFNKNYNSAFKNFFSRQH
T2 sequence (P41595 whole entry, species assumed): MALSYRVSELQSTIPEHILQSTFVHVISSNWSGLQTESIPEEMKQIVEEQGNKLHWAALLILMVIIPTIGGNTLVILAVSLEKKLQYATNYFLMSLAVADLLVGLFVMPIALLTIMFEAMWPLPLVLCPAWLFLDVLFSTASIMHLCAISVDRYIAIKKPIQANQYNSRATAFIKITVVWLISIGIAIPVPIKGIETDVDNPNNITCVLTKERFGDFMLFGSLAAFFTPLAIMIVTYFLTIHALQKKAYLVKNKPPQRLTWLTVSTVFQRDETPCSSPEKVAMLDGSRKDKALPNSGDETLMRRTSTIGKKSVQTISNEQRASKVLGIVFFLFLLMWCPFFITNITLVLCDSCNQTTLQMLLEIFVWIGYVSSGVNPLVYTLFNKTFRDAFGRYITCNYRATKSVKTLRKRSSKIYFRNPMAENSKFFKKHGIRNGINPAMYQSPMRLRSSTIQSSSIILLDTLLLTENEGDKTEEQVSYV
T7 sequence (P28223 whole entry, species assumed): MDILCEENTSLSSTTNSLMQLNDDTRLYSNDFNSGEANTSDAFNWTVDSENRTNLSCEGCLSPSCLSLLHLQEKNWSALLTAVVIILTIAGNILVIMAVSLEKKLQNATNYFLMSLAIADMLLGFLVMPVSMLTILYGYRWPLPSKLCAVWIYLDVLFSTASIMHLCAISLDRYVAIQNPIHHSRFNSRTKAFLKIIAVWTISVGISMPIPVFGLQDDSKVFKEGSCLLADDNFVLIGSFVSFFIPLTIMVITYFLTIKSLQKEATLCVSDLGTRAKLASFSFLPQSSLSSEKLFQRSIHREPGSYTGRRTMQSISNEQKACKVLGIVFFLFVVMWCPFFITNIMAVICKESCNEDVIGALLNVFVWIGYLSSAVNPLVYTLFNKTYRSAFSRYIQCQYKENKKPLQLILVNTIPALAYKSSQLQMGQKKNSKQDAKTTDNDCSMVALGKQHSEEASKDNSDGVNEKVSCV

For the compound `COCc1ccc(-c2nccnc2N2CCN(CCN(C)S(=O)(=O)c3cnn(C)c3)CC2)cc1.Cl` [Example 25, 1-Methyl-1H-pyrazole-4-sulfonic acid {2-[3′-(4-methoxymethyl-phenyl)-2,3,5,6-tetrahydro-[1,2′]bipyrazinyl-4-yl]-ethyl}-methyl-amide hydrochloride], the Ki at 5-HT4 was above 4.12 µM; at alpha 2 adrenergic it was above 5.29 µM; at 5-HT2B, above 6.81 µM; on 5-HT2C it was above 8.36 µM; at 5-HT1D, 1.27 µM; on 5-HT1A, 2.07 µM. Also, the inhibition constant Ki was 2.33 µM on alpha 1 adrenergic, above 5.83 µM on 5-HT6, above 7.47 µM on 5-HT2A and 3.32 µM at 5-HT5.

The values are drawn from US8048884B2, “Substituted piperazinyl pyrazines and pyridines as 5-HT7 receptor antagonists” (Eli Lilly and Company, priority 2007, dated 2011).
